Results published in PMC10143702, “Kinetic and Regulatory Properties of Yarrowia lipolytica Aconitate Hydratase as a Model-Indicator of Cell Redox State under pH Stress” (International Journal of Molecular Sciences, 2023).
Where two headings read alike, the source gives them in different places.

Assays:
aconitate hydratase (AH) [1] = tested on: T1, aconitate hydratase (AH); test: spectrophotometric at […] nm; Lineweaver-Burk; format: biochemical, Yarrowia lipolytica; conditions: enzyme from cells grown at pH 5.5; 50 mM Tris-HCl pH 7.8, 25 °C; partially purified; reverse reaction; read-out: Isocitrate / Km
T1 construct: gene ACO1; cells grown at pH 5.5; [4Fe-4S] enzyme

aconitate hydratase (AH) [2] = tested on: T2, aconitate hydratase (AH); conditions: read-out: Citrate / Km; enzyme from cells grown at pH 5.5; 50 mM Tris-HCl pH 7.8, 25 °C; partially purified
T2 construct: gene ACO1

| SMILES | Km (aconitate hydratase (AH) [1]) [µM] | Km (aconitate hydratase (AH) [2]) [µM] |
| --- | --- | --- |
| O=C(O)C[C@H](C(=O)O)[C@@H](O)C(=O)O [isocitrate] | 270 ± 15 | – |
| O=C(O)CC(O)(CC(=O)O)C(=O)O [citrate] | – | 320 ± 11 |
